Test results from patent publication US6521662B2, “Ceramide-like compounds having antioxidant property and a method for preparation thereof, and a cosmetic composition containing the same” (Pacific Corporation, priority 2000, dated 2003).

Assays:
[1] = Solubility of natural ceramide and ceramide-like compounds in cosmetic solvents; type: physicochemical; conditions: 20° C.; dissolved at 80° C. then cooled to 20° C.
Experimental: The solubility of a natural ceramide and of ceramide-like compounds:
Ceramide Type 3 represented by the following formula (III) has been mainly used in cosmetics. Accordingly, in this experiment were compared solubility of the ceramide Type 3 (obtained from bovine brain) and the ceramide-like compounds of Examples 1 to 3 in various solvents such as ethanol, which have been widely used in cosmetics. Samples were dissolved in the solvents of 80° C. then cooled to 20° C.

[2] = Anti-oxidative activity using DPPH; conditions: 37° C. for 30 minutes; UV spectrophotometer
Experimental: Anti-oxidative activity using DPPH
Diphenylpicrylhydrazyl(DPPH) has been known as a radical reaction inhibitor which is stabilized by the radical reaction. Also, it has a chromophoric property with compounds having anti-oxidative activity. Therefore, this experiment utilized the above property.
About 50 ml of DPPH was introduced into the test tube. And samples were added dropwise thereto. After addition, the test tube was maintained in constant temperature bath of 37° C. for 30 minutes. The extent of color development was measured by UV spectrophotometer.

[3] = Anti-oxidative activity using linoleic acid; conditions: ammoniumthiocyanate, after 3 minutes, lower absorbance means higher anti-oxidative activity
Experimental: Anti-oxidative activity using linoleic acid
Linoleic acid is easily oxidized to be peroxide due to double bond contained therein. Therefore, this experiment utilized the above property.
The control solution employed in this experiment was prepared by adding 2.88 ml of 2.5% linoeic acid in ethanol and 9 ml of 40 mmol phosphate buffer(pH 7.0) to 200 ml of ethanol. This control solution was maintained in the dark of 40° C. And, sample solutions were prepared by adding 9.7 ml of 75% ethanol, 0.1 ml of 30% ammoniumthiocyanate and 0.1 ml of each sample, to 0.1 ml of the control solution. After 3 minutes, the absorbance was measured at 500 nm by using a UV spectrophotometer. Lower absorbance value means higher anti-oxidative activity.

Compound | Solubility in Cetyl octanoate [1] [% wt/wt %] | Solubility in Ethanol [1] [% wt/wt %] | Solubility in Isopropyl palmitate [1] [% wt/wt %] | Solubility in Octyl Palmitate [1] [% wt/wt %] | Solubility in Octyl dodecanol [1] [% wt/wt %] | Color development with DPPH (Experiment Example 5-1) [2] | Absorbance at 500 nm (Experiment Example 5-2) [3]
Cc1c(C)c2c(c(C)c1OC(=O)CCC(=O)N(CCO)CC(O)CN(CCO)C(=O)CCC(=O)Oc1c(C)c(C)c3c(c1C)CCC(C)(CCCC(C)CCCC(C)CCCC(C)C)O3)CCC(C)(CCCC(C)CCCC(C)CCCC(C)C)O2 (stereo not drawn) [Example 1, 1,3-bis(N-(2-hydroxyethyl)-α-tocopherylsuccinoylamino) -2-hydroxypropane] | >5 | >5 | >5 | >5 | >5 | Brown | 0.23
Cc1cc(OC(=O)CCC(=O)N(CCO)CC(O)CN(CCO)C(=O)CCC(=O)Oc2cc(C)c3c(c2)CCC(C)(CCCC(C)CCCC(C)CCCC(C)C)O3)cc2c1OC(C)(CCCC(C)CCCC(C)CCCC(C)C)CC2 (stereo not drawn) [Example 2, 1,3-bis(N-(2-hydroxyethyl)-δ-tocopherylsuccinoylamino) -2-hydroxypropane] | >5 | >5 | >5 | >5 | >5 | Brown | 0.29
Cc1c(OC(=O)CCC(=O)N(CCO)CC(O)CN(CCO)C(=O)CCC(=O)Oc2cc3c(c(C)c2C)OC(C)(CCCC(C)CCCC(C)CCCC(C)C)CC3)cc2c(c1C)OC(C)(CCCC(C)CCCC(C)CCCC(C)C)CC2 (stereo not drawn) [Example 3, 1,3-bis(N-(2-hydroxyethyl)-γ-tocopherylsuccinoylamino)-2-hydroxypropane] | >5 | >5 | >5 | >5 | >5 | Brown | 0.30
CCCCCCCCCCCCCCCCCCCCCCCC(=O)NC(CO)C(O)C(O)CCCCCCCCCCCCCC (stereo not drawn) [Natural Ceramide (type 3), reference compound] | <1 | <1 | <1 | <1 | <1 | – | –
CC(=O)Oc1c(C)c(C)c2c(c1C)CCC(C)(CCC[C@H](C)CCC[C@H](C)CCCC(C)C)O2 (stereo partly drawn) [Vitamin E acetate, reference compound] | – | – | – | – | – | No color change | 0.44
Vitamin E [reference compound] | – | – | – | – | – | No color change | 0.23
